These results are taken from patent publication US12480075B2, “Perfume delivery system” (FIRMENICH SA, priority 2019, dated 2025).

The nature of the assay: Odor threshold concentration (Log T / Log ODT) by gas chromatograph sniff port with panelists. Particulars: common logarithm of odor threshold concentration of the ingredient. Also on record: species or system human. The protocol: “High impact perfume raw materials” should be understood as perfume raw materials having a Log T<−4. The odor threshold concentration of a chemical compound is determined in part by its shape, polarity, partial charges and molecular mass. For convenience, the threshold concentration is presented as the common logarithm of the threshold concentration, i.e., Log [Threshold] (“Log T”).
The odor threshold concentration of a perfuming compound is determined by using a gas chromatograph (“GC”). Specifically, the gas chromatograph is calibrated to determine the exact volume of the perfume oil ingredient injected by the syringe, the precise split ratio, and the hydrocarbon response using a hydrocarbon standard of known concentration and chain-length distribution. The air flow rate is accurately measured and, assuming the duration of a human inhalation to last 12 seconds, the sampled volume is calculated. […] To determine the threshold concentration, solutions are delivered to the sniff port at the back-calculated concentration. A panelist sniffs the GC effluent and identifies the retention time when odor is noticed. The average across all panelists determines the odor threshold concentration of the perfuming compound. The determination of odor threshold is described in more detail in C.

A value given as a limit tells only on which side of the number the result lay.

Consider “3,5,6-TRIMETHYL-3-CYCLOHEXENE-1-CARBALDEHYDE (A) + 2,4,6-TRIMETHYL-3-CYCLOHEXENE-1 -CARBALDEHYDE (B)”, for which the “Log ODT” value is on record as over −4.

On to `CCCCCCOC(C)=O` [HEXYL ACETATE], for which the “Log ODT” value is over −4. The value for `C=CCCC(=O)C1=CCCC(C)(C)C1` was under −4; that for `O=C1CCCCCCCCCCCCCCO1` [OXACYCLOHEXADECAN-2-ONE] was over −4; that for `CC1=CCC(C(C)(C)S)CC1` (racemic) [(+−)-2-(4-METHYL-3-CYCLOHEXEN-1-YL)-2-PROPANETHIOL] was under −4. As to `C=CC(C)(CCC=C(C)C)OC(C)=O` (racemic) [(+−)-1,5-DIMETHYL-1-VINYL-4-HEXENYL ACETATE], the “Log ODT” value is on record as over −4.

`CCCCCCCCCC(C)C=O` (racemic) [(+−)-2-METHYLUNDECANAL]: the “Log ODT” value is under -4. As to `CC12CCC(CC1)C(C)(C)O2`, the “Log ODT” value is given as over −4. The value for `COc1nccnc1CCCC(C)C` was under −4; that for `CC1(C)CCC[C@]2(C)[C@H]3CCO[C@]3(C)CC[C@@H]12` [(−)-(3AR,5AS,9AS,9BR)-3A,6,6,9A-TETRAMETHYLDODECAHYDRONAPHTHO[2,1-B]FURAN] was under −4. On to `CCCCCCCC1CCC(=O)O1` (racemic) [(+−)-5-HEPTYLDIHYDRO-2(3H)-FURANONE], for which the “Log ODT” value is under −4.

As for `COCCc1ccccc1` [(2-METHOXYETHYL)BENZENE], the “Log ODT” value is recorded as over −4.

In the case of “(2Z)-2-TRIDECENENITRILE (A) + (3Z)-3-TRIDECENENITRILE (B) + (3E)-3-TRIDECENENITRILE (C) + (2E)-2-TRIDECENENITRILE (D)”, the “Log ODT” value is listed as under −4. Take “(+−)-(3E)-3-METHYL-4-(2,6,6-TRIMETHYL-2-CYCLOHEXEN-1-YL)-3-BUTEN-2-ONE (A) + (+−)-(1E)-1-(2,6,6-TRIMETHYL-2-CYCLOHEXEN-1-YL)-1-PENTEN-3-ONE (B)”: the “Log ODT” value is recorded as under −4.

Turning to `CC(=O)OCCC(C)CCC=C(C)C` (stereo not drawn) [3,7-DIMETHYL-6-OCTENYL ACETATE], the “Log ODT” value is recorded as over −4. The value for `CC/C=C(\C)C(O)CCCCC` (racemic) [(+−)-(E)-4-METHYL-3-DECEN-5-OL] was over −4. In the case of `CCCCC[C@H]1C(=O)CC[C@@H]1CC(=O)OC` (racemic) [METHYL 2-((1RS,2RS)-3-OXO-2-PENTYLCYCLOPENTYL)ACETATE], the “Log ODT” value is reported as over −4. On to `CC(=O)/C=C/C1=C(C)CCCC1(C)C`, for which the “Log ODT” value was under −4.

`CCOC(=O)C(C)CC` (racemic) [(+−)-ETHYL 2-METHYLBUTANOATE]: the “Log ODT” value is over −4.

Consider “(+)-(3S)-3-[(1R)-4-METHYL-3-CYCLOHEXEN-1-YL]BUTANAL (A) + (+)-(3R)-3-[(1R)-4-METHYL-3-CYCLOHEXEN-1-YL]BUTANAL”, for which the “Log ODT” value is over −4. The value for `c1ccc(Oc2ccccc2)cc1` [1,1′-OXYDIBENZENE] was over −4. The value for `CC(C)CCCC(C)CCO` (racemic) was over −4; that for “2-METHYLBUTYL SALICYLATE (A) + PENTYL SALICYLATE (B)” was over −4; that for `CC(=O)O[C@@H]1CC2CC[C@]1(C)C2(C)C` [(1R,2R)-1,7,7-TRIMETHYL-BICYCLO[2.2.1]HEPT-2-YL ACETATE] was over −4. As for `COc1ccc2ccccc2c1` [2-METHOXYNAPHTHALENE], the “Log ODT” value is reported as under −4. The value for `CC(C)=CCCC(C)CC=O` (racemic) was over −4. The value for “10-UNDECENAL (A) + (9E)-9-UNDECENAL (B) + (9Z)-9-UNDECENAL (C)” was under −4. The value for `CC(C)=CCCC(C)C=O` (racemic) was over −4; that for `CCCCCCOC(=O)c1ccccc1O` [HEXYL 2-HYDROXYBENZOATE] was over -4; that for “3-(4-ETHYLPHENYL)-2,2-DIMETHYLPROPANAL (A) + 3-(2-ETHYLPHENYL)-2,2-DIMETHYLPROPANAL (B)” was over −4. On to `CC1=CC2CC(C=O)C1CC2C(C)C` (stereo not drawn) [8-ISOPROPYL-6-METHYL-BICYCLO[2.2.2]OCT-5-ENE-2-CARBALDEHYDE], for which the “Log ODT” value is given as under −4. The value for `CCCCCCCCCC(C)=O` [Microcapsules 2-UNDECANONE, 2-UNDECANONE] was over −4; that for “(2RS,4SR)-4-METHYL-2-(2-METHYL-1-PROPEN-1-YL)TETRAHYDRO-2H-PYRAN (A) + (2RS,4RS)-4-METHYL-2-(2-METHYL-1-PROPEN-1-YL)TETRAHYDRO-2H-PYRAN (B)” was over −4; that for “1-OXA-12-CYCLOHEXADECEN-2-ONE (A) + 1-OXA-13-CYCLOHEXADECEN-2-ONE (B)” was over −4. The value for “3,7-DIMETHYL-2,6-NONADIENENITRILE (A) + 3,7-DIMETHYL-3,6-NONADIENENITRILE (B)” was over −4; that for “.ALPHA.-DIHYDROTERPINEOL (A) + .BETA.-DIHYDROTERPINEOL (B)” was over −4. Turning to `C/C=C/C(=O)[C@@H]1[C@@H](C)C=CCC1(C)C` (racemic), the “Log ODT” value is on record as under −4. The value for `CC1(C)CC=C(CCC=O)CC1` was over −4. The value for `COc1ccc(C)cc1` [1-METHOXY-4-METHYLBENZENE] was over −4.

Turning to “TRICYCLO[5.2.1.0~2,6~]DEC-3-EN-8-YL ACETATE (A) + TRICYCLO[5.2.1.0~2,6~]DEC-4-EN-8-YL ACETATE (B)”, the “Log ODT” value was over −4. With “(2Z)-1,1-DIETHOXY-3,7-DIMETHYL-2,6-OCTADIENE (A) + (2E)-1,1-DIETHOXY-3,7-DIMETHYL-2,6-OCTADIENE (B)”, the “Log ODT” value is over −4. The value for “(+−)-4-METHYLENE-2-PHENYLTETRAHYDRO-2H-PYRAN (A) + (+−)-4-METHYL-6-PHENYL-3,6-DIHYDRO-2H-PYRAN (B) + (+−)-4-METHYL-2-PHENYL-3,6-DIHYDRO-2H-PYRAN (C)” was under −4; that for `C=CC(C)CCCC(C)(C)O` (racemic) was over −4. Consider `CCCCCCCC=O` [OCTANAL], for which the “Log ODT” value is recorded as over −4.

As to `CC(C)c1cccc(C(C)CC=O)c1` (racemic) [(+−)-3-(3-ISOPROPYL-1-PHENYL)BUTANAL], the “Log ODT” value is given as under −4. In the case of “(1RS,2RS)-2,4-DIMETHYL-3-CYCLOHEXENE-1-CARBALDEHYDE (A) + (1RS,2SR)-2,4-DIMETHYL-3-CYCLOHEXENE-1-CARBALDEHYDE (B)”, the “Log ODT” value was over −4. The value for `CC/C=C\CCOC(=O)C(C)C` [(Z)-3-HEXENYL ISOBUTYRATE] was over −4; that for `CCCCCCCCCC=O` [DECANAL] was over −4; that for `CC(=O)OCCc1ccccc1` [2-PHENYLETHYL ACETATE] was over −4.

As to `CC/C=C\CCOC(C)=O` [(Z)-3-HEXENYL ACETATE], the “Log ODT” value is recorded as over −4. The value for `CC1=CCC2C[C@@H]1C2(C)C` (single isomer, unassigned; (-)) was over −4.
